Experimental data reported in US11207409B2, “X-RAY psoralen activated cancer therapy (X-PACT) with associated treatments” (priority 2017, dated 2021).

Test system: murine tumor cell lines (breast-4T1, glioma-CT2A, and sarcoma KP15B8)
Description: Guava Annexin V flow cell cytometry was used to quantify cytotoxicity in 3 murine tumor cell lines (breast-4T1, glioma-CT2A, and sarcoma KP15B8). In-vitro X-PACT studies were conducted on cells prepared in the following manner. Cells were incubated in appropriate growing media and buffers before being trypsinized and plated evenly onto twelve (12) well plates for 24 hours. About 20 minutes prior to X-PACT irradiation, the wells of each plate were exposed to the following combinations of additives: (1) control ˜cells only with no additives, (2) UVADEX only, (3) phosphors only, (4) UVADEX+phosphors. […] The plates were then irradiated with x-rays by placing the plate at a known distance from the x-ray source (e.g., 50 cm). […]
Two primary flow cytometry metrics were used to evaluate the X-PACT treatments, both determined at 48h after X-PACT treatment. […] The first metric is metabolically viable cell count (or cell viability) determined from the number of whole cells per well as determined using forward scattering (FSC). […] (All wells on a given plate receive the same dose.) The second metric is Annexin V (+) signal, which is the fraction of the metabolically viable cells which expressed a positive Annexin V signal as determined by flow cell cytometry, and include any cells advancing toward early or late apoptotic cell death. […]

Substance | % Viability (1-Toxicity) [%]
3Ca3(PO4)2•Ca(Fl,Cl)2:Sb^3+,Mn^2+ [GTP 4300] | 70
Zn2SiO4:Mn | 75
